Results taken from patent US9187467B2, “2-phenyl benzothiazole linked imidazole compounds as potential anticancer agents and process for the preparation thereof” (Council of Scientific and Industrial Research, priority 2012, dated 2015).

Columns and labels:
HOP-62 = test: SRB anticancer assay, non-small lung; assay type: cell-based, human; conditions: for GI50: Homo sapiens, HOP-62, 48 h; for Log10GI50: HOP-62, present compounds
HCC-2998 = test: SRB anticancer assay, colon; assay type: cell-based, human; conditions: Homo sapiens; HCC-2998, 48 h
IGROV1 = test: SRB anticancer assay, ovarian; assay type: cell-based, human; conditions: Homo sapiens, IGROV-1; IGROV1, 48 h
CAKI-1 = test: SRB anticancer assay, renal; assay type: cell-based, human; design: Log10GI50: unit not given here; conditions: for GI50: Homo sapiens, CAKI-1, 48 h; for Log10GI50: CAKI-1, present compounds
MDA-MB-435 = test: SRB anticancer assay, melanoma; assay type: cell-based, human; design: Log10GI50: unit not given here; conditions: for GI50: Homo sapiens, MDA-MB-435, 48 h; for Log10GI50: MDA-MB-435, present compounds
[1] = test system: sixty human cancer cell lines; test: SRB anticancer assay, all cell lines; assay type: cell-based; conditions: all the cell lines; exposure at least 48 h
CCRF-CEM = test: SRB anticancer assay, leukemia; assay type: cell-based, human; design: Log10GI50: unit not given here; conditions: for GI50: Homo sapiens, 48 h; for Log10GI50: present compounds
RPMI-8226 = test: SRB anticancer assay, leukemia; assay type: cell-based; conditions: Homo sapiens, RPMI-8226, 48 h
HCT-15 = test: SRB anticancer assay, colon; assay type: cell-based, human; conditions: Homo sapiens, HCT-15, 48 h
SW-620 = test: SRB anticancer assay, colon; assay type: cell-based, human; design: Log10GI50: unit not given here; conditions: for GI50: Homo sapiens, SW-620, 48 h; for Log10GI50: SW-620, present compounds
M14 = test: SRB anticancer assay, melanoma; assay type: cell-based, human; design: Log10GI50: unit not given here; conditions: for GI50: Homo sapiens, M14, 48 h; for Log10GI50: M14, present compounds
EKVX = test: SRB anticancer assay, non-small lung; assay type: cell-based, human; design: Log10GI50: unit not given here; conditions: for GI50: Homo sapiens, 48 h; for Log10GI50: present compounds
HOP-92 = test: SRB anticancer assay, non-small lung; assay type: cell-based, human; design: Log10GI50: unit not given here; conditions: for Log10GI50: HOP-92, present compounds; for GI50: Homo sapiens, HOP-92, 48 h
MDA-MB-468 = test: SRB anticancer assay, breast; assay type: cell-based, human; design: unit not given here; conditions: present compounds
caspase-9 = test: Western blot, apoptosis proteins in MCF-7 cells; assay type: cell-based; conditions: 2 μM, 24h
Method: (§1) FIG. 3 represents effect of compound 7d and 7h on p21 and caspase-9. MCF-7 cells were treated with 2 μM concentration of compounds 7d and 7h for 24h. The cell lysates were collected and probed with anti-bodies against p21 and caspase-9. beta-actin was used as loading control. Con: Control (untreated).
(§2) Activation of tumor suppressor gene p21 was the important regulator of apoptotic pathway caused by various stimuli. In many instances the apoptotic cell death is mediated by caspases, thus the possible involvement of p21 and caspase protein and its role in apoptosis has been investigated. MCF-7 cells were treated with 7d, 7h (the effective compounds of cell cycle arrest) 21a, 21d and CA-4 at 2 μM concentration.

p21 = test: Western blot, apoptosis proteins in MCF-7 cells; assay type: cell-based; conditions: 2 μM, 24h
Method: as §1, §2

MOLT-4 = test: SRB anticancer assay, leukemia; assay type: cell-based, human; design: Log10GI50: unit not given here; conditions: for GI50: Homo sapiens, MOLT-4, 48 h; for Log10GI50: MOLT, present compounds
COLO 205 = test: SRB anticancer assay, colon; assay type: cell-based, human; conditions: Homo sapiens, COLO 205, 48 h
[2] = test system: microtubule network of MCF-7 cells; test: Effect on microtubule network; assay type: cell-based; conditions: 2 μM
Method: FIG. 2 represents effect of compound 7d, the effective compound on the microtubule network of MCF-7 cells untreated cells (Con), nocodazole (Noc) and 7d at 2 μM concentration. Microtubules and unassembled tubulin are shown in green and DNA was stained with nuclear dye DAPI (4,6-diamidino-2-phenylindole) is shown in blue colour.
Inhibition of tubulin is associated with G2/M cell cycle arrest by interrupting chromosome segregation and affecting mitotic spindle formation. […] It was considered of interest to understand the mechanism of anti-cancer activity of compound 7d with regard to interaction with microtubule system. MCF-7 breast cancer cells were treated with Nocodazole (Noc), 7d compounds at 2 μM concentration.

| Structure (SMILES) | GI50 (HOP-62) [µM] | GI50 (HCC-2998) [µM] | GI50 (IGROV1) [µM] | GI50 (CAKI-1) [µM] | GI50 (MDA-MB-435) [µM] | mean graph midpoint values (MG_MID) of log10LC50, range [1] | GI50 (CCRF-CEM) [µM] | GI50 (RPMI-8226) [µM] | GI50 (HCT-15) [µM] | GI50 (SW-620) [µM] | GI50 (M14) [µM] | GI50 (EKVX) [µM] | Log10GI50 (EKVX) | Log10GI50 (HOP-92) | GI50 (HOP-92) [µM] | Log10GI50 (CAKI-1) | Log10GI50 (MDA-MB-468) | Log10GI50 (M14) | GI50 (MOLT-4) [µM] | GI50 (COLO 205) [µM] | other results |
| --- | --- | --- | --- | --- | --- | --- | --- | --- | --- | --- | --- | --- | --- | --- | --- | --- | --- | --- | --- | --- | --- |
| COc1cc(OC)cc(-c2cncn2-c2ccc(-c3nc4cc(OC)cc(OC)c4s3)cc2)c1 [Compound 6d, 2-(4-(5-(3,5-Dimethoxyphenyl)-1H-imidazol-1-yl)phenyl)-5,7-dimethoxybenzo[d]thiazole] | 6.65 | > 100 | 5.07 | 2.13 | 1.53 | −4.00 |  |  |  |  |  |  |  |  |  |  |  |  |  |  |  |
| COc1cc(OC)c2sc(-c3ccc(-n4cncc4-c4ccc(OC)c(OC)c4)cc3)nc2c1 [Compound 6e, 2-(4-(5-(3,4-Dimethoxyphenyl)-1H-imidazol-1-yl)phenyl)-5,7-dimethoxybenzo[d]thiazole] | 35.5 | > 100 | 56.1 |  |  | −4.00 | > 100 | > 100 | > 100 | > 100 | > 100 |  |  |  |  |  |  |  |  |  |  |
| COc1cc2nc(-c3ccc(-n4cncc4-c4ccc(N)cc4)cc3)sc2c(OC)c1OC [Compound 7h, 4-(1-(4-(5,6,7-Trimethoxybenzo[d]thiazol-2-yl)phenyl)-1H-imidazol-5-yl)benzenamine] |  |  | 2.63 | 1.41 |  |  |  |  |  |  | 2.1 | 2.49 | −5.60 | −6.35 | 0.446 | −5.85 | −5.74 | −5.68 |  |  | caspase-9 protein (Western blot) (caspase-9): increase; p21 protein (Western blot) (p21): increase |
| COc1ccc(-c2cncn2-c2ccc(-c3nc4cc(OC)c(OC)c(OC)c4s3)cc2)cc1N [Compound 7j, 2-Methoxy-5-(1-(4-(5,6,7-trimethoxybenzo[d]thiazol-2-yl)phenyl)-1H-imidazol-5-yl)benzeneamine] |  |  | 4.9 | 4.82 | 3.13 | −4.00 | 3.41 |  | 4.02 | 6.21 | 5.91 | 7.54 | −5.12 |  |  | −5.32 | −5.07 | −5.23 | 4 | 2.94 | Log10GI50 (CCRF-CEM): −5.47; Log10GI50 (MOLT-4): −5.40; Log10GI50 (SW-620): −5.21; Log10GI50 (MDA-MB-435): −5.50 |
| COc1cc(OC)c2sc(-c3ccc(-n4cncc4-c4cc(OC)c(OC)c(OC)c4)cc3)nc2c1 [Compound 6f, 5,7-Dimethoxy-2-(4-(5-(3,4,5-trimethoxyphenyl)-1H-imidazol-1-yl)phenyl)benzo[d]thiazole] | 75.9 | > 100 | 5.87 |  | 3.41 | −4.00 | 3.95 | 5.39 | 5.48 | 5.96 | 7.91 | 5.09 |  |  |  |  |  |  | 4.24 | 4.51 | mean graph midpoint values (MG_MID) of log10TGI, range [1]: −4.00 |
| COc1cc(OC)cc(-c2cncn2-c2ccc(-c3nc4cc(OC)c(OC)c(OC)c4s3)cc2)c1 [Compound 7d, 2-(4-(5-(3,5-Dimethoxyphenyl)-1H-imidazol-1-yl)phenyl)-5,6,7-trimethoxybenzo[d]thiazole] | 26.4 | > 100 | 9.6 | 3.79 | 6.07 |  |  | 2.9 | 5.72 | 13.7 |  | 1.87 | −5.73 | >−4.0 | > 100 | −5.42 | −4.97 |  | 4.11 | 3.85 | Log10GI50 (MOLT-4): −5.39; Log10GI50 (HOP-62): −4.58 log10 M; Log10GI50 (SW-620): −4.86; Log10GI50 (MDA-MB-435): −5.22; microtubulin organization [2]: disrupted microtubulin organization; caspase-9 protein (Western blot) (caspase-9): increase; p21 protein (Western blot) (p21): increase |
| COc1cc(-c2cncn2-c2ccc(-c3nc4ccc(F)cc4s3)cc2)ccc1F [Compound 4c, 6-Fluoro-2-(4-(5-(4-fluoro-3-methoxyphenyl)-1H-imidazol-1-yl)phenyl)benzo[d]thiazole] | 40.7 | > 100 | 15.4 | > 100 | 17.1 |  | 6.92 | 4.11 | 82.3 | 7.81 | 33.4 |  |  | −5.26 | 5.47 |  | −4.96 | −4.48 | 3.41 | 56.8 | Log10GI50 (CCRF-CEM): −5.16; Log10GI50 (MOLT-4): −5.47; Log10GI50 (HOP-62): −4.39 log10 M; Log10GI50 (SW-620): −5.11; Log10GI50 (MDA-MB-435): −4.77 |
